The record followed here is patent publication US20230227466A1, “SUBSTITUTED THIENOPYRIMIDINES THAT INTERACT WITH THE RAS SUPERFAMILY FOR THE TREATMENT OF CANCERS, INFLAMMATORY DISEASES, RASOPATHIES, AND FIBROTIC DISEASE” (SHY Therapeutics, LLC, priority 2020, published 2023).

Assay [1] concerns MIA-PaCa-2 pancreatic cancer cell line (KRAS G12C). In words: Cell proliferation assay (CellTiter 96 Aqueous One). Type of assay: cell-based. The settings on record: Homo sapiens; for inhibition at 10 µM: MIA PaCa-2, read-out: % inh cell proliferation (10 μM) in MIA PaCa-2. In a few lines: (§1)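 After overnight attachment, compounds are added (10 μM final or serial dilutions) and left 2–4 days, with viability then measured by MTS.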

The next assay concerns the target Rac-1 (Homo sapiens, UniProt P63000). As to the kind of experiment: Ras GTP binding domain inhibition assay (labeled-GTP competition, cell-free). More on the design: made in house. In a few lines: (§2)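 Immobilized His-tagged protein (Ni plate, 10-30 μg/mL, overnight 4° C); compound 20 μM or dilution series, 1% DMSO, 3 h RT, ±Sos 556-1049 last hour; Cy3/Cy5-GTP 100 nM, 45 min RT; 3× wash; bound fluorescence read.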

The target in a further assay is Rho-A (Homo sapiens, UniProt P61586). The assay is described as above. Also noted: made in house. In a few lines:
as §2

Assay [2] deals with PANC-1 pancreatic cancer cell line (KRAS G12D). As to the kind of experiment: Cell proliferation assay (CellTiter 96 Aqueous One). In kind it is cell-based. The settings on record: Homo sapiens; PANC-1, 2-4 days, 10% FBS. In a few lines: as §1
For assay [3], the system named is SW-620 colorectal cancer cell line (KRAS G12V). The description is as above. In kind it is cell-based. The note with it: Homo sapiens; SW-620, 2-4 days, 10% FBS. In a few lines:
as §1

Setting [4] is: with SOS, read-out: Rac-1 + SOS: % inh.
The mark [5] stands for this setting: without SOS, read-out: Rac-1: % inh.
Where [6] appears, read: with SOS, read-out: Rho-A + SOS: % inh.
Setting [7] is: without SOS, read-out: Rho-A: % inh.

Read-outs that look alike come from different tables or passages of the source. Bounds are passed on as bounds.

Rho-A, sequence (P61586 whole entry): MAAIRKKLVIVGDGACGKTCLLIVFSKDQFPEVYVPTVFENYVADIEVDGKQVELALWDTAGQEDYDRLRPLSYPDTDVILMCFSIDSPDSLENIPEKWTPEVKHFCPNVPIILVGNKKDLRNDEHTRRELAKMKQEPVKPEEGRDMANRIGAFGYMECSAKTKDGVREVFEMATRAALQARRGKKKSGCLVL

In general, IC50 refers to the concentration at which inhibition is half-maximal. A lower IC50 goes with greater potency. On to `CO[C@H]1CC[C@@H](Nc2nc(-c3nccn3C)nc3sc(-c4cn(C)cn4)c(-c4ccccc4)c23)C1` (racemic) [Example 3, Rac-N-((1R,3S)-3-methoxycyclopentyl)-2-(1-methyl-1H-imidazol-2-yl)-6-(1-methyl-1H-imidazol-4-yl)-5-phenylthieno[2,3-d]pyrimidin-4-amine], for which the IC50 in assay [1] (MIA PaCa-2, MIA PaCa-2) was in the range of 1 to 4.99 µM. For the same compound, the inhibition at 10 µM in assay [1] lay within 76 to 100%. In addition, the inhibition at 20 µM fell in the range of 76 to 100% at Rac-1 (setting [4]), 76 to 100% at Rac-1 (setting [5]), 76 to 100% at Rho-A (setting [6]) and 51 to 75% at Rho-A (setting [7]).

The compound `COc1ccn2c(-c3nc(O)c4scc(-c5ccccn5)c4n3)ncc2c1` [Compound 85, 2-(7-Methoxyimidazo[1,5-a]pyridin-3-yl)-7-(pyridin-2-yl)thieno[3,2-d]pyrimidin-4-ol] had an IC50 in assay [1] (MIA PaCa-2, MIA PaCa-2) of 5 to 10 µM. The inhibition at 10 µM in assay [1] fell in the range of 51 to 75%. Further, the inhibition at 20 µM at Rac-1 (setting [5]) and on Rho-A (setting [7]) was 51 to 75% each time.

In the case of `COc1ccc2cnc(-c3nc(O)c4scc(-c5ccccn5)c4n3)n2c1` [Compound 86, 2-(6-Methoxyimidazo[1,5-a]pyridin-3-yl)-7-(pyridin-2-yl)thieno[3,2-d]pyrimidin-4-ol], the IC50 in assay [1] (MIA PaCa-2, MIA PaCa-2) fell in the range of 5 to 10 µM. For the same compound, the inhibition at 10 µM in assay [1] lay in the range of 51 to 75%. Besides, the inhibition at 20 µM on Rac-1 (setting [5]) and on Rho-A (setting [7]) was 51 to 75% throughout.

Regarding `COCCn1c(-c2nc(O)c3scc(-c4ccccn4)c3n2)nc2ccccc21` [Compound 87, 2-(1-(2-Methoxyethyl)-1H-benzo[d]imidazol-2-yl)-7-(pyridin-2-yl)thieno[3,2-d]pyrimidin-4-ol], the IC50 in assay [1] (MIA PaCa-2, MIA PaCa-2) is 5 to 10 µM; in assay [1] (MIA PaCa-2, MIA-PaCa-2, 2-4 days, 10% FBS), above 3 µM; in assay [2], below 0.4 µM; in assay [3], below 0.4 µM. Further, the inhibition at 10 µM in assay [1] was in the range of 76 to 100%. The inhibition at 20 µM on Rac-1 (setting [5]) and on Rho-A (setting [7]) was 51 to 75% in each case.

In the case of `Oc1nc(-c2ccncn2)nc2c(-c3ccccn3)csc12` [Compound 88, 7-(Pyridin-2-yl)-2-(pyrimidin-4-yl)thieno[3,2-d]pyrimidin-4-ol], in assay [1] (MIA PaCa-2, MIA PaCa-2), the IC50 was above 10 µM. In assay [1], the inhibition at 10 µM fell in the range of 26 to 50%. Moreover, the inhibition at 20 µM at Rac-1 (setting [5]) and on Rho-A (setting [7]) was 51 to 75% in each case.

The compound `Oc1nc(-c2cccnc2)nc2c(-c3ccccn3)csc12` [Compound 89, 7-(Pyridin-2-yl)-2-(pyridin-3-yl)thieno[3,2-d]pyrimidin-4-ol] yielded an IC50 in assay [1] (MIA PaCa-2, MIA PaCa-2) above 10 µM. Moreover, the inhibition at 10 µM in assay [1] was 26 to 50%. The inhibition at 20 µM at Rac-1 (setting [5]) is 0%; on Rho-A (setting [7]), 1 to 25%.

Turning to `Cn1ccc(-c2nc(O)c3scc(-c4ccccn4)c3n2)n1` [Compound 90, 2-(1-Methyl-1H-pyrazol-3-yl)-7-(pyridin-2-yl)thieno[3,2-d]pyrimidin-4-ol], the IC50 in assay [1] (MIA PaCa-2, MIA PaCa-2) is above 10 µM. For the same compound, the inhibition at 10 µM in assay [1] lay within 1 to 25%. The values for the inhibition at 20 µM on Rac-1 (setting [5]) and on Rho-A (setting [7]) were 26 to 50% and 51 to 75%, respectively.

In assay [1] (MIA PaCa-2, MIA PaCa-2), `Cn1nccc1-c1nc(O)c2scc(-c3ccccn3)c2n1` [Compound 91, 2-(1-Methyl-1H-pyrazol-5-yl)-7-(pyridin-2-yl)thieno[3,2-d]pyrimidin-4-ol] displayed an IC50 above 10 µM. In addition, in assay [1], the inhibition at 10 µM worked out at 0%. The inhibition at 20 µM on Rac-1 (setting [5]) and on Rho-A (setting [7]) was 0% throughout.

For `Cc1cnc(-c2nc(O)c3scc(-c4ccccn4)c3n2)s1` [Compound 92, 2-(5-Methylthiazol-2-yl)-7-(pyridin-2-yl)thieno[3,2-d]pyrimidin-4-ol], the half-inhibitory concentration (IC50) in assay [1] (MIA PaCa-2, MIA PaCa-2) is above 10 µM. Also, the inhibition at 10 µM in assay [1] worked out at 0%. Also, the inhibition at 20 µM at Rac-1 (setting [5]) and at Rho-A (setting [7]) was 76 to 100% in each case.

Compound `COCCn1ccnc1-c1nc(O)c2scc(-c3ccncc3)c2n1` [Compound 94, 2-(1-(2-Methoxyethyl)-1H-imidazol-2-yl)-7-(pyridin-4-yl)thieno[3,2-d]pyrimidin-4-ol] returned an IC50 in assay [1] (MIA PaCa-2, MIA PaCa-2) of 5 to 10 µM. Besides, the inhibition at 10 µM in assay [1] was 51 to 75%. Further, the inhibition at 20 µM at Rac-1 (setting [5]) and at Rho-A (setting [7]) was 76 to 100% in each case.

For `COc1nc(-c2nccn2C)nc2c(-c3ncccc3F)csc12` [Compound 95, 7-(3-Fluoropyridin-2-yl)-4-methoxy-2-(1-methyl-1H-imidazol-2-yl)thieno[3,2-d]pyrimidine], the IC50 in assay [1] (MIA PaCa-2, MIA PaCa-2) is above 10 µM. The inhibition at 10 µM in assay [1] came out at 0%. Further, the inhibition at 20 µM at Rac-1 (setting [4]), on Rac-1 (setting [5]), on Rho-A (setting [6]) and on Rho-A (setting [7]) was 76 to 100% in each case.

In assay [1] (MIA PaCa-2, MIA PaCa-2), `CO[C@H]1C[C@@H](Nc2nc(-c3nccn3C)nc3sc(-c4cn(C)cn4)c(-c4ccccc4)c23)C1` [Example 2, N-((1s,3s)-3-methoxycyclobutyl)-2-(1-methyl-1H-imidazol-2-yl)-6-(1-methyl-1H-imidazol-4-yl)-5-phenylthieno[2,3-d]pyrimidin-4-amine] came in with an IC50 of 1 to 4.99 µM. Further, in assay [1], the inhibition at 10 µM is 51 to 75%. Besides, the inhibition at 20 µM was in the range of 51 to 75% at Rac-1 (setting [4]), 51 to 75% at Rac-1 (setting [5]), 76 to 100% on Rho-A (setting [6]) and 76 to 100% on Rho-A (setting [7]).
